Patent US20260327242A1, “Platform and Scaffold for FAP Targeting Agents” (Erasmus University Medical Center Rotterdam, priority 2022, published 2026)

Legend:
[1] = vis-à-vis FAPI-04; cited from earlier work
[2] = tested on: FAP; settings: cited from earlier work
[3] = target: T1, FAP (Homo sapiens, UniProt Q12884); test: Competitive binding assay against [^111In]In-FAPI-46 in HT-1080.hFAP cells; settings: 37° C., 1 h
T1 construct: expressed in transfected cells; host or cells: HT-1080.hFAP
T1 sequence (Q12884 1-760): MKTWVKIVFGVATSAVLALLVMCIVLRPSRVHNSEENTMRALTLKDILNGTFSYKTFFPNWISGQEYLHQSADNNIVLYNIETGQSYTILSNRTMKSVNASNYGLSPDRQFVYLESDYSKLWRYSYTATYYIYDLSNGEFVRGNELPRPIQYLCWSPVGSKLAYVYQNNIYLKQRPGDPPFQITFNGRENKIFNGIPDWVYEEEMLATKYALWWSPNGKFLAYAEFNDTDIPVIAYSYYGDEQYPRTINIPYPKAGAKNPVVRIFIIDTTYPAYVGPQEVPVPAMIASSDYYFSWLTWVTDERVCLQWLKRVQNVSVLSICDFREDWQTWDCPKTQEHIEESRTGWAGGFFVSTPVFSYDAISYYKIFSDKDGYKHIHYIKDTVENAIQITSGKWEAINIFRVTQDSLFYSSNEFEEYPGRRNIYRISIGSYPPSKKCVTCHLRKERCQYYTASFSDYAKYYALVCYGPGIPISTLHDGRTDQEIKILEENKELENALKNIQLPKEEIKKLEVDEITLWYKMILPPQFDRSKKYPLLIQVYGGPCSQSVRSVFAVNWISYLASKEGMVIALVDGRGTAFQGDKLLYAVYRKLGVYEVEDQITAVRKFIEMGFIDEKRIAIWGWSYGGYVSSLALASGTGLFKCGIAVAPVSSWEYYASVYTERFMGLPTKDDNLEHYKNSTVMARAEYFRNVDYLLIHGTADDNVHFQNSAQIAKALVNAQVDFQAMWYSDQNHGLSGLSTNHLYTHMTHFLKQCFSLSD
Procedure: The U-87 MG glioblastoma was cultured at 37° C. and 5% CO2 in Dulbecco's Modified Eagle Medium (DMEM) supplemented with 10% (v/v) fetal calf serum. HT-1080.hFAP cells were kept in culture in DMEM medium supplemented with fetal bovine serum (10%, FBS) and antibiotic antimycotic (1%, AA) at 37° C. and 5% CO2. For passaging, cells were detached using Trypsin-EDTA 0.05% when reaching 90% confluence and re-seeded at a dilution of 1:4.
Competition binding experiments were conducted by incubation of the [^111In]In-FAPI-46 radioligand with increasing concentrations of eFAP compound in HT-1080.hFAP cells at 37° C. for 1 h. Cells were then washed three times with binding buffer and lysed. The cell-associated radioactivity was measured in a γ-counter. The IC50 values were calculated by fitting the data by non-linear regression using GraphPad Prism.
Results with FABI-46 obtained in the same assay is included for comparison.

For `CN(CCCN1CCN(C(=O)CN2CCN(CC(=O)O)CCN(CC(=O)O)CCN(CC(=O)O)CC2)CC1)c1ccc2nccc(C(=O)NCC(=O)N3CC(F)(F)C[C@H]3C#N)c2c1` [FAPI-46], the “tumor-to-organ ratios (in words)” value [1] is given as “improved tumor-to-organ ratios”.

In the case of `N#C[C@@H]1CC(F)(F)CN1C(=O)CNC(=O)c1ccnc2ccccc12` [UAMC-1110], the “affinity to FAP (in words)” value [2] is listed as “nanomolar affinity to FAP”.

With `N#C[C@@H]1CC(F)(F)CN1C(=O)CNC(=O)c1ccnc2c(OCCCNC(=O)CN3CCN(CC(=O)O)CCN(CC(=O)O)CCN(CC(=O)O)CC3)cccc12` [eFAP-6, (S)-2,2′,2″-(10-(2-((3-((4-((2-(2-Cyano-4,4-difluoropyrrolidin-1-yl)-2-oxoethyl)carbamoyl)quinolin-8-yl)oxy)propyl)amino)-2-oxoethyl)-1,4,7,10-tetraazacyclododecane-1,4,7-triyl)triacetic acid] the “binding affinity for FAP (in words)” value [3] was “low nano-molar binding affinity for FAP”.
